Where two headings read alike, the source gives them in different places.
Assays:
anandamide transporter [1] = experiment: substrate translocation of radioactively labeled analogs (FIGS. 1 and 2); assay type: cell-based; design: dose or concentration left out as unconfirmed; conditions: radioactively labeled compounds
anandamide transporter [2] = experiment: [3H]anandamide competition assay using a high throughput method; assay type: cell-based, human
PGE2 carrier = experiment: [3H]PGE2 accumulation in neurons or astrocytes; assay type: cell-based
From the text: The bromcresol green, which blocks PGE2 transport, raised the question of whether anandamide accumulation occurred by means of a PGE2 carrier. That this is not the case was shown by the lack of [^3H]PGE2 accumulation in neurons or astrocytes and by the inability of PGE2 to interfere with [^3H]anandamide accumulation.

anandamide transporter [3] = experiment: [3H]anandamide accumulation in cortical astrocytes in culture; assay type: cell-based, rat; conditions: for effect on [3H]anandamide accumulation: cortical astrocytes; for prevention of the temperature-sensitive component of [3H]anandamide accumulation: cortical astrocytes in culture
anandamide transporter [4] = experiment: [3H]anandamide accumulation in neurons; assay type: cell-based, rat
astrocytes [5] = experiment: uptake of [3H]ethanolamine in astrocytes; assay type: cell-based
rat cerebral membranes = biological target: T1, rat cerebral membranes (Rattus norvegicus, UniProt P20272); experiment: binding of [3H]WIN-55212-2 to rat cerebral membranes
T1 construct: from tissue; host or cells: rat cerebral membranes
T1 sequence (P20272 whole entry): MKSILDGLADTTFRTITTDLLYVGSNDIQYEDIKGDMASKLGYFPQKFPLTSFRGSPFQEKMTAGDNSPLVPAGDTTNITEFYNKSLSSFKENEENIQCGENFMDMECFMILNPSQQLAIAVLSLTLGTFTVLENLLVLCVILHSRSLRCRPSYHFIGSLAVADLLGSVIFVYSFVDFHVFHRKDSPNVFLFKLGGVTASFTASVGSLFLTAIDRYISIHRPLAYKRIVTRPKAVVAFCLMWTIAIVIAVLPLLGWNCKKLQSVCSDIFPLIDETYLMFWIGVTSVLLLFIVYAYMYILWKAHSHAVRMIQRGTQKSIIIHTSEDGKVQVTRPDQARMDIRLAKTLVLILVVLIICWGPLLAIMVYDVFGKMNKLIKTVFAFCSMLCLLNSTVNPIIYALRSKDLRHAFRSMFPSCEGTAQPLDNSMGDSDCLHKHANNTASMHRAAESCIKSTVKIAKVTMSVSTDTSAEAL

astrocytes [6] = experiment: uptake of [3H]arachidonate in astrocytes; assay type: cell-based
[7] = Table I, affinity for ligand recognition by the anandamide transporter
[8] = read-out: IC50 (AT inhib.) μM), Table II, anandamide transporter inhibition
[9] = Table II, anandamide transporter inhibition, read-out: IC50 (AT inhib.) μM)
[10] = astrocytes, single high-affinity component

CCCCC/C=C\C/C=C\C/C=C\C/C=C\CCCC(=O)Nc1ccc(O)cc1 [AM404, N-(4-hydroxyphenyl)arachidonamide, reference compound]
transport (translocation) compared with [3H]anandamide (anandamide transporter [1]): transported as rapidly and effectively as

CCCCC/C=C\C/C=C\C/C=C\C/C=C\CCCNC(=O)c1ccc(O)cc1 [AM1172]
transport (translocation) compared with [3H]anandamide (anandamide transporter [1]): transported as rapidly and effectively as
IC50 (anandamide transporter [2]; [7]): 2 µM

CCCCC/C=C\C/C=C\C/C=C\C/C=C\CCCCNC(=O)C(C)C [AM1177]
transport (translocation) compared with [3H]anandamide (anandamide transporter [1]): transported as rapidly and effectively as
IC50 (anandamide transporter [2]; [7]): 5 µM

CCCCC/C=C\C/C=C\C/C=C\C/C=C\CCCC(=O)OC1COC(c2ccccc2)OC1 (centres unmarked) [AM1191]
transport (translocation) compared with [3H]anandamide (anandamide transporter [1]): transported as rapidly and effectively as
IC50 (anandamide transporter [2]; [7]): 0.8 µM

CCCCCC=CCC=CCC=CCC=CCCCCOC(=O)NC(C)CO (centres unmarked) [Compound 1]
IC50 (anandamide transporter [2]; [8]): 7.1 µM

CCCCCC=CCC=CCC=CCC=CCCCCOC(=O)NC(C)CO (centres unmarked) [Compound 2]
IC50 (anandamide transporter [2]; [8]): 6.4 µM

CCCCCC=CCC=CCC=CCC=CCCCCOC(=O)NCC(C)O (centres unmarked) [Compound 3]
IC50 (anandamide transporter [2]; [8]): 1.5 µM

CCCCCC=CCC=CCC=CCC=CCCCCOC(=O)NCC(C)O (centres unmarked) [Compound 4]
IC50 (anandamide transporter [2]; [8]): 0.4 µM

CCCCCC=CCC=CCC=CCC=CCCCCOC(=O)NC(C)C [Compound 5]
IC50 (anandamide transporter [2]; [8]): 21.9 µM

CCCCCC=CCC=CCC=CCC=CCCCCOC(=O)NC1CC1 [Compound 6]
IC50 (anandamide transporter [2]; [8]): 15.5 µM

CCCCCC=CCC=CCC=CCC=CCCCCOC(=O)NC1CCC1 [Compound 7]
IC50 (anandamide transporter [2]; [8]): 15.5 µM

CCCCCC=CCC=CCC=CCC=CCCCCOC(=O)NC1CCCCC1 [Compound 8]
IC50 (anandamide transporter [2]; [8]): 33 µM

CCCCCC=CCC=CCC=CCC=CCCCCOC(=O)Nc1ccc(O)cc1 [Compound 9]
IC50 (anandamide transporter [2]; [8]): 6.6 µM

CCCCCC=CCC=CCC=CCC=CCCCCOC(=O)NC1=NCCS1 [Compound 10]
IC50 (anandamide transporter [2]; [9]): 8.6 µM

CCCCCC=CCC=CCC=CCC=CCCCCOC(=O)Nc1cccnc1 [Compound 11]
IC50 (anandamide transporter [2]; [8]): 16.1 µM

CCCCCC=CCC=CCC=CCC=CCCCCNC(=O)NCC(C)O (centres unmarked) [Compound 12]
IC50 (anandamide transporter [2]; [8]): 1.78 µM

CCCCCC=CCC=CCC=CCC=CCCCCNC(=O)OCC(C)O (centres unmarked) [Compound 16]
IC50 (anandamide transporter [2]; [8]): 3.29 µM

CCCCC/C=C\C/C=C\C/C=C\C/C=C\CCCC(=O)Nc1nccs1 [Compound 17]
IC50 (anandamide transporter [2]; [9]): 1.7 µM

CCCCC/C=C\C/C=C\C/C=C\C/C=C\CCCC(=O)NC1=NCCS1 [Compound 18]
IC50 (anandamide transporter [2]; [9]): 2.8 µM

CCCCC/C=C\C/C=C\C/C=C\C/C=C\CCCC(=O)Nc1nncs1 [Compound 19]
IC50 (anandamide transporter [2]; [9]): 1.5 µM

CCCCC/C=C\C/C=C\C/C=C\C/C=C\CCCC(=O)Nc1nc2ccccc2s1 [Compound 20]
IC50 (anandamide transporter [2]; [9]): 44.2 µM

CCCCC/C=C\C/C=C\C/C=C\C/C=C\CCCC(=O)Nc1nc(Br)cs1 [Compound 21]
IC50 (anandamide transporter [2]; [9]): 92.3 µM

CCCCC/C=C\C/C=C\C/C=C\C/C=C\CCCC(=O)Nc1ncc([N+](=O)[O-])s1 [Compound 22]
IC50 (anandamide transporter [2]; [9]): 14.1 µM

CCCCC/C=C\C/C=C\C/C=C\C/C=C\CCCC(=O)Nc1nc(C)cs1 [Compound 23]
IC50 (anandamide transporter [2]; [9]): 11.2 µM

CCCCC/C=C\C/C=C\C/C=C\C/C=C\CCCC(=O)Nc1nc(C)c(C)s1 [Compound 24]
IC50 (anandamide transporter [2]; [9]): 26 µM

CCCCC/C=C\C/C=C\C/C=C\C/C=C\CCCC(=O)Nc1nc(C(C)(C)C)cs1 [Compound 25]
IC50 (anandamide transporter [2]; [9]): 24.1 µM

CCCCC[C@H](O)/C=C/[C@H]1[C@H](O)CC(=O)[C@@H]1C/C=C\CCCC(=O)O [PGE2, prostaglandin E2]
accumulation of [3H]PGE2 (PGE2 carrier): lack
interference with [3H]anandamide accumulation (anandamide transporter [3]): inability

Cc1c(C(=O)NN2CCCCC2)nn(-c2ccc(Cl)cc2Cl)c1-c1ccc(Cl)cc1.Cl [SR-141716-A]
displacement of the higher affinity component of [3H]anandamide accumulation (anandamide transporter [4]; neurons, 100 nM): displaced
effect on [3H]anandamide accumulation (anandamide transporter [3]; 10 μM): no effect

Cc1c(C(=O)c2cccc3ccccc23)c2cccc3c2n1[C@H](CN1CCOCC1)CO3 [WIN-55212-2]
effect on [3H]anandamide accumulation (anandamide transporter [3]; 1 μM): no effect

CCCCC/C=C\C/C=C\C/C=C\C/C=C\CCCC(=O)NCCO [anandamide, Arachidonyl ethanolamide]
time to reach 50% of maximum accumulation (anandamide transporter [4]; neurons and astrocytes): about four
Vmax (anandamide transporter [4]; neurons, higher affinity component): 5.9 pmol/min per milligram of protein
Km (anandamide transporter [4]; neurons, higher affinity component, read-out: Km): 0.032 µM
maximum accumulation rate, Vmax (anandamide transporter [4]; neurons, lower affinity component): 90.9 pmol/min per milligram of protein
Km (anandamide transporter [4]; neurons, lower affinity component, read-out: Michaelis constant, Km): 1.2 µM
Km (anandamide transporter [3]; [10]): 0.32 µM
Vmax (anandamide transporter [3]; [10]): 171 pmol/min per milligram of protein
prevention of the temperature-sensitive component of [3H]anandamide accumulation (anandamide transporter [3]): prevented

Cc1c(C2(c3cc(Br)c(O)c(Br)c3C)OS(=O)(=O)c3ccccc32)cc(Br)c(O)c1Br [bromcresol green]
mode of inhibition of [3H]anandamide accumulation (anandamide transporter [4]; neurons and astrocytes): noncompetitively
effect on uptake of [3H]ethanolamine (astrocytes [5]): no significant effect
effect on the binding of [3H]WIN-55212-2 (rat cerebral membranes): no significant effect
effect on uptake of [3H]arachidonate (astrocytes [6]): no significant effect

CCCCCCCCCCCCCCCC(=O)NCCO [palmitoyl ethanolamide]
prevention of the temperature-sensitive component of [3H]anandamide accumulation (anandamide transporter [3]): not
